# From patent US20220016048A1, “CANNABIDIOL-TYPE CANNABINOID COMPOUND” (GW Research Limited, priority 2018, published 2022)
# How the values were obtained:
# [1] = test system: PCP-induced social behaviour deficit in female rats; settings: background statement; cited from earlier work
# [2] = test system: sub-chronic PCP-induced deficit in social behaviour in female Lister-Hooded rats; assay: social interaction test in sub-chronic PCP treated rats; type: in vivo, rat
# Description: The aim of the current study was to investigate the ability of CBD-C4 (3, 10 & 30 mg/kg IP; 60 min pre-treatment (ptt)) in comparison with risperidone (an atypical antipsychotic; 0.1 mg/kg IP; 60 min pre-treatment), to antagonise a sub-chronic PCP (scPCP; 2 mg/kg IP; twice daily for 7-days; 7 day wash out)-induced deficit in social behaviour in female Lister-Hooded rats.
# 180 female Lister Hooded rats were used for this experiment, of which 90 were used for the drug study and 90 weight-matched untreated conspecifics were used as the companion rat, and their behaviour was not scored.
# Rats were housed in groups of 5 under standard laboratory conditions under a 12-hr light: dark cycle, lights on at 0700 hr. Testing was carried out in the light phase. These studies were carried out in accordance with the Animals Scientific Procedures Act (UK, 1986).
# CBD-C4 was used at doses of (3, 10, 30 mg/kg, i.p.) and risperidone was used at a dose of 0.1 mg/kg, i.p.
# Rats were randomly assigned to two treatment groups and treated with vehicle, n=15 (distilled water, i.p.) or PCP, n=75 (2 mg/kg, i.p. twice daily for 7-days). This was followed by a 7-day wash out period before the rats were tested following acute treatment with CBD-C4, risperidone or vehicle.
# Risperidone (0.1 mg/kg) was dissolved in a minimum volume of acetic acid, made up to volume with distilled water and pH adjusted to 6 with 0.1M NaOH and administered via the i.p. route in a volume of 1 ml/kg, 60 min prior to testing.
# CBD-C4 (3, 10 & 30 mg/kg) was dissolved in 2:1:17 (Ethanol:Cremophor EL:Saline 0.9%). CBD-C4 was administered via the i.p. route in a volume of 5 ml/kg, 60 min prior to testing.
# The social interaction test was performed in an open-field comprising a square box made of Plexiglas (52×52×31 cm) placed 27 cm above the floor on a moveable trolley. The floor of the box was white with black gridlines forming 9 identical squares on it. All other walls were black. A video camera connected to a video recorder and monitor was positioned above the box. The object used for the test consists of a heavy structure made of metal that cannot be displaced by the animals.
# After a 7 day drug-free period, the rats were habituated to the test environment and arena prior to the test day. Habituation consisted of placing all rats from one cage together in the empty test arena for one hour for three days including the day before the test day.
# Pairs of rats, weight matched (15-20 g) and unfamiliar to each other, receiving either no treatment (n=90 “conspecific” rats) or different treatments (PCP; n=15 “tested” rats, Vehicle; n=15 “tested” rats, or PCP+drug; n=60 “tested” rats) were placed in the test arena together for 10 minutes and behavior assessed as described below.
# An inanimate object such as an unopened drink can was also placed in the centre of the arena to measure any differences in interaction of the test animal with an unfamiliar animal as opposed to an unfamiliar object. After each 10-minute trial, the object and arena were cleaned with 10% alcohol in an attempt to remove traces of any olfactory cues. All testing was carried out under standard room illumination levels (70 cd/m^2).
# Behaviour in both trials was recorded on video for subsequent blind scoring. A behavioural scoring software program (Hindsight, Scientific programming services) was used to score the following parameters:
# Investigative sniffing behaviour: sniffing the conspecific's snout or parts of the body including the anogenital region.
# Following: rat moves after the conspecific i.e. a vehicle treated rat of the same species, around the arena.
# Avoidances: actively turning away when approached by the conspecific animal.
# Investigation of object: exploration of object placed in centre of the arena.
# Locomotor activity is recorded by counting the total number of sectors (i.e. lines) crossed by the test rat.
# All data were assessed for normality using D'Agostino and Pearson normality test. […]
# mouse model of seizure = assay: maximal electroshock (MES) test in the mouse; type: in vivo; settings: 2 mg/kg i.p. 30 minutes before MES; p<0.001
# Description: Mice were administered MES (50 mA, rectangular current: 0.6 ms pulse width, 0.4 s duration, 50 Hz) via corneal electrodes connected to a constant current shock generator (Ugo Basile: type 7801). The number of tonic convulsions was recorded.
# Twelve mice were studied per group. The test was performed blind.
# The test substance, CBD-C4, was evaluated at 5 doses (3, 10, 30, 100 and 200 mg/kg), administered i.p. 60 minutes before MES, and compared with a vehicle control group (administered under the same experimental conditions).
# Diazepam (2 mg/kg i.p.), administered i.p. 30 minutes before MES, was used as a reference substance and was compared with a vehicle group (administered i.p. 60 minutes before MES).
# Data was analysed by comparing treated groups with the appropriate vehicle control using Fisher's Exact Probability tests.
# [3] = 0.1 mg/kg i.p., 60 min pre-treatment
# [4] = CBD-C4 3, 10, 30 mg/kg, risperidone 0.1 mg/kg i.p., data not shown
structure (smiles),measurement,setting,value
O=C(CCCN1CCC(O)(c2ccc(Cl)cc2)CC1)c1ccc(F)cc1 [haloperidol],attenuation of PCP-induced social behaviour deficit,[1],not attenuated
CNCCC(Oc1ccc(C(F)(F)F)cc1)c1ccccc1 (stereo not shown) [fluoxetine],attenuation of PCP-induced social behaviour deficit,[1],not attenuated
O=C1Cc2cc(CCN3CCN(c4nsc5ccccc45)CC3)c(Cl)cc2N1 [ziprasidone],attenuation of PCP-induced social behaviour deficit,[1],attenuated
O=C1CCc2ccc(OCCCCN3CCN(c4cccc(Cl)c4Cl)CC3)cc2N1 [aripiprazole],attenuation of PCP-induced social behaviour deficit,[1],attenuated
Cc1nc2n(c(=O)c1CCN1CCC(c3noc4cc(F)ccc34)CC1)CCCC2 [risperidone],avoidance behaviour compared to the scPCP-treated group,[2]; [3],significantly decreased
same,following behaviour,[2]; [3],no significant effect
same,sniffing behaviour,[2]; [3],no significant effect
same,line crossings (locomotor activity),[2]; [4],no significant effect
same,object exploration,[2]; [4],no significant effect
"c1ccc(C2(N3CCCCC3)CCCCC2)cc1 [PCP, Phencyclidine]",sniffing behaviour (scPCP vs vehicle),"[2]; PCP 2 mg/kg i.p. twice daily 7 days, 7-day wash out, P<0.001",significantly reduced
same,following behaviour (scPCP vs vehicle),"[2]; PCP 2 mg/kg i.p. twice daily 7 days, 7-day wash out, P<0.01",significantly reduced
same,increase in the duration of avoidance activity (scPCP vs vehicle),"[2]; PCP 2 mg/kg i.p. twice daily 7 days, 7-day wash out, P=0.058",just failed to reach statistical significance
"CN1C(=O)CN=C(c2ccccc2)c2cc(Cl)ccc21 [diazepam, Diazepam, reference compound]","decrease in the number of tonic convulsions, as compared with vehicle controls",mouse model of seizure,−75%
